Source: article PMC3070799 (Neuropharmacology, 2011)
Like-named read-outs stand apart in the source and are kept apart here.

Columns and labels:
mouse 5-HT3AB = target: T1, mouse 5-HT3AB (Mus musculus, UniProt P23979+Q9JHJ5); assay: Granisetron competition binding
T1 construct: expressed in transfected cells
T1 sequence (P23979 24-483 isoform P23979-2 limits assumed): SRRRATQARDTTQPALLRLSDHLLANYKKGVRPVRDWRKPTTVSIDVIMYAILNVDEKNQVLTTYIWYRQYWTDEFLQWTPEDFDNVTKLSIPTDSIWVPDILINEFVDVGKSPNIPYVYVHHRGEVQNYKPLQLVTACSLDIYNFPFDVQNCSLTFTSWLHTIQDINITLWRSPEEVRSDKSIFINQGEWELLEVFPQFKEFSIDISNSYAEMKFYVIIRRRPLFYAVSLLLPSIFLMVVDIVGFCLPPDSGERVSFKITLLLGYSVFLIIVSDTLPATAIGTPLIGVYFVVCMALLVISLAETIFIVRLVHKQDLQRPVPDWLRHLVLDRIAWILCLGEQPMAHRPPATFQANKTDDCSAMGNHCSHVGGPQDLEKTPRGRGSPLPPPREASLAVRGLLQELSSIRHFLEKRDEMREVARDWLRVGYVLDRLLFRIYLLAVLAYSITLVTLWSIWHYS
T1 sequence (Q9JHJ5 22-437): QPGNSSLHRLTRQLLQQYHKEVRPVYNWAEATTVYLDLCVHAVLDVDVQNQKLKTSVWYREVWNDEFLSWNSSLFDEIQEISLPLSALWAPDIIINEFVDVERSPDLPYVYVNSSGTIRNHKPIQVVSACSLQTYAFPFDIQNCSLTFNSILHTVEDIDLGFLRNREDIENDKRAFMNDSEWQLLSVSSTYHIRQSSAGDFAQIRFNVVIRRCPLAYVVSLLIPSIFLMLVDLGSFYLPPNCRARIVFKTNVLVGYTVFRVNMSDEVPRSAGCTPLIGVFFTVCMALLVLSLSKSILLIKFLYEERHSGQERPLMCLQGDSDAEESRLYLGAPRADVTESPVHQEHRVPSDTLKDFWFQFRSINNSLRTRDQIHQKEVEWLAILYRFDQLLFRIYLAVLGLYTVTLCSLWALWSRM
Experimental: (§1) Competition binding (8 point) was performed on at least three separate plates of transfected cells. […] Reactions were incubated for at least 1 h at 4 °C and terminated by vacuum filtration using a Brandel cell harvester onto GF/B filters pre-soaked in 0.3% polyethyleneimine. Radioactivity was determined by scintillation counting using a Beckman BCLS6500 (Fullerton, California, USA). Data were analysed by iterative curve fitting (GraphPad Prism v3.02) according to the equation:(5) BL=Bmin+Bmax−Bmin/1+10^nH(logL50−logL) where L is the concentration of ligand present; BL is the binding in the presence of ligand concentration L; Bmin is the binding when L = 0; Bmax is the binding when L = ∞, L50 is the concentration of L which gives a binding equal to (Bmax + Bmin)/2; and nH is the Hill coefficient. Results are presented as mean ± S.E.M.. Statistical analysis was performed using ANOVA in conjunction with a Dunnett’s post-hoc test.

mouse 5-HT3A = target: T2, mouse 5-HT3A (Mus musculus, UniProt P23979); assay: Granisetron competition binding
T2 construct: expressed in transfected cells
T2 sequence (P23979 24-483 isoform P23979-2 limits assumed): T1 sequence (P23979 24-483 isoform P23979-2 limits assumed)
Experimental: as §1

human 5-HT3AB receptors = target: T3, human 5-HT3AB receptors (Homo sapiens, UniProt O95264+P46098); type: binding
T3 construct: expressed in transfected cells; host or cells: Xenopus laevis oocytes (cRNA from pGEMHE)
T3 sequence (P46098 24-478): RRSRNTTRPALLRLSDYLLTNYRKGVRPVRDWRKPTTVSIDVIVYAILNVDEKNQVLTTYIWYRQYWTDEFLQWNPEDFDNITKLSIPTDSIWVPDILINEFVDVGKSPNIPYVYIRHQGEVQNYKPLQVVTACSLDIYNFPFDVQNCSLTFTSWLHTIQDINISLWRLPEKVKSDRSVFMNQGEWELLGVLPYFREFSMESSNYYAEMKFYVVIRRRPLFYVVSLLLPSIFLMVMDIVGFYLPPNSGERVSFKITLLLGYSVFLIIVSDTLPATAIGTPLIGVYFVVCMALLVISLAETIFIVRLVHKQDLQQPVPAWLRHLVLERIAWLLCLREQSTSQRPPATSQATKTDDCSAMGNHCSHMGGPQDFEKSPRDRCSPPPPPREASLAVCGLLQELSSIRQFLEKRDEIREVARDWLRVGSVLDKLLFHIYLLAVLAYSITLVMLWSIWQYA
T3 sequence (O95264 22-441): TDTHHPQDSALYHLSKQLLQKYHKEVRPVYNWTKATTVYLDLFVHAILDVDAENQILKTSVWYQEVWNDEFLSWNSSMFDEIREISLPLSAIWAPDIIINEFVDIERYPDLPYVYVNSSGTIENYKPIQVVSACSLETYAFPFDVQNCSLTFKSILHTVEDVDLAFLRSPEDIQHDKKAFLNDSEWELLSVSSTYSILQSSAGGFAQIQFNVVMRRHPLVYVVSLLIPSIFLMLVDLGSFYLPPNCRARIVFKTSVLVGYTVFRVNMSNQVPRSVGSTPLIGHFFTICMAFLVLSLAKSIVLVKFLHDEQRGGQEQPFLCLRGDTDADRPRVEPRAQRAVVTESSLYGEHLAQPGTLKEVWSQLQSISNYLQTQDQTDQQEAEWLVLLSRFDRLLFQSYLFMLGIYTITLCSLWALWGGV
Experimental: Human embryonic kidney (HEK) 293 cells were maintained on 90 mm tissue culture plates at 37 °C and 7% CO2 in a humidified atmosphere. They were cultured in DMEM:F12 with GlutaMAX™ I media (Dulbecco’s Modified Eagle’s Medium /Nutrient Mix F12 (1:1), Invitrogen, Paisley, UK) containing 10% foetal calf serum. For radioligand binding studies, cells in 90 mm dishes were transfected using polyethyleneimine (PEI): 30 μl PEI (1 mg /ml), 5 μl cDNA and 1 ml DMEM were incubated for 10 min at room temperature, added drop wise to a 80–90% confluent plate, and incubated for 3–4 days before use.
as §1

| Compound | Displacement of granisetron (0.5 nM) (mouse 5-HT3AB; compound 2.5 mM) | Displacement of granisetron (0.5 nM) (mouse 5-HT3A; compound 2.5 mM) | Effect on binding of [3H]granisetron (1 nM) (human 5-HT3AB receptors; compound 2.5 mM) | Effect on binding of [3H]granisetron (1 nM) (human 5-HT3AB receptors) | Displacement of granisetron (0.5 nM) (mouse 5-HT3AB; compound 5 mM) | Displacement of granisetron (0.5 nM) (mouse 5-HT3A; compound 5 mM) | Effect on binding of [3H]granisetron (1 nM) (human 5-HT3AB receptors; compound 5 mM) |
| --- | --- | --- | --- | --- | --- | --- | --- |
| ginkgolide B [GB] | not displaced | not displaced | not affected | – | – | – | – |
| CC(C)(C)[C@]1(O)CC2OC(=O)CC23C(=O)OC2OC(=O)[C@H](O)C231 (stereo partly drawn) [BB, bilobalide] | not displaced | not displaced | – | not affected | – | – | – |
| C=C(C)[C@@H]1[C@H]2OC(=O)[C@@H]1[C@]1(O)C[C@H]3O[C@]34C(=O)O[C@H]2[C@]14C [PXN, picrotoxinin] | – | – | – | – | not displaced | not displaced | not affected |
